{"source": "patent US20030190364A1", "about": "“Biological affinity based delivery systems” (priority 2002, published 2003)", "key": {"[1]": {"assay": "Relative affinity to heparin of synthesized peptides (Table 2)", "type": "binding", "conditions": "corresponds to the bold-faced amino acids of the sequence"}, "[2]": {"assay": "Heparin affinity column, NaCl concentration required for elution", "type": "binding", "conditions": "50 mM sodium phosphate pH 7.5, gradient 0 to 2 M NaCl over 20 column volumes", "protocol": "For purposes of the present invention, conditions for determining the affinity of the PB polypeptides (and/or the therapeutic agent) for heparin are as follows: The polypeptide is solubilized in 50 mM sodium phosphate buffer, pH 7.5 to a final concentration of 0.5 mg/ml. 1 mg of the polypeptide is loaded onto an Amersham Biosciences HiPrep 16/10 Heparin FF column (or suitable equivalent) at a flow rate of 5 ml/min at 25° C. After loading the polypeptide, a salt gradient is introduced to the column by increasing the sodium chloride content of the buffer from 0 to 2 M NaCl over 20 column volumes. The recorded NaCl concentration required for elution is determined by correlating the maximum absorbance value at 280 and/or 215 nm for each spectrum to the value of the gradient at that time point.\nFIG. 4 is a chart depicting the relative heparin affinity of various heparin-binding peptides. Each peptide was solubilized in 50 mM sodium phosphate buffer, pH 7.5 to a final concentration of 0.5 mg/ml. Then, 1 mg of each peptide was loaded onto an Amersham Biosciences HiPrep 16/10 Heparin FF column at a flow rate of 5 ml/min. After loading the peptide, a salt gradient was introduced to the column by increasing the sodium chloride content of the buffer from 0 to 2 M NaCl over 20 column volumes. The recorded NaCl concentration required for elution was determined by correlating the maximum absorbance value at 280 and/or 215 nm for each spectrum to the value of the gradient at that time point."}, "[3]": {"conditions": "cited from earlier work"}, "[4]": {"assay": "Dissociation constant (KD) of peptides from heparin, literature values", "type": "binding", "conditions": "PBD3 versus PBD2"}, "[5]": {"conditions": "references [1], [2], read-out: Affinity to Heparin (KD)"}}, "note": "Like-named read-outs stand apart in the source and are kept apart here. Where no end group is shown, it is not given here. [ ]: non-standard residue; d: D form. The star is where a group is joined. FITC = O=C1OC2(c3ccc(O)cc3Oc3cc(O)ccc32)c2ccc(NC(=S)*)cc21; Dansyl = CN(C)c1cccc2c(S(=O)(=O)*)cccc12; βAla = NCCC(=O)O", "data": [{"substance": "AAFAKLAARLYRKAGC [HBD-low]", "values": [{"measurement": "Relative Affinity to Heparin", "setting": "[1]", "result": 14.3, "unit": "%"}]}, {"substance": "AKLNCRLYRKANKSSKL [PBD8]", "values": [{"measurement": "NaCl Elution Conc.", "setting": "[2]", "result": 481.2, "unit": "mM"}]}, {"substance": "Dansyl-GYGRKKRRQRRR [Dansyl-TAT]", "values": [{"measurement": "NaCl Elution Conc.", "setting": "[2]", "result": 727.6, "unit": "mM"}]}, {"substance": "FITC-A(β)AAFAKLAARLYRKAGC ({FITC}-[βAla]AAFAKLAARLYRKAGC) [PBD2]", "values": [{"measurement": "NaCl Elution Conc.", "setting": "[2]", "result": 354.8, "unit": "mM"}, {"measurement": "Kd", "setting": "[3]; [5]", "result": 370, "unit": "nM"}]}, {"substance": "FITC-A(β)GGGGYGRKKRRQRRR ({FITC}-[βAla]GGGGYGRKKRRQRRR) [TAT, reference compound]", "values": [{"measurement": "Relative Affinity to Heparin", "setting": "[1]", "result": 170, "unit": "%"}, {"measurement": "Kd", "setting": "[3]; low molecular weight heparin and heparin to which only one molecule of TAT is bound (Rusnati, 1999), read-out: KD, dissociation constant for TAT from heparin", "result": "~700", "unit": "nM"}, {"measurement": "Kd", "setting": "[3]; [5]", "result": 30, "unit": "nM"}]}, {"substance": "FITC-A(β)KAFAALAARLYRKAGC ({FITC}-[βAla]KAFAALAARLYRKAGC) [PBD3, PBD3 control is the same peptide tested without heparin]", "values": [{"measurement": "NaCl Elution Conc.", "setting": "[2]", "result": 313.0, "unit": "mM"}, {"measurement": "Kd", "setting": "[3]; [5]", "result": 660, "unit": "nM"}, {"measurement": "dissociation constant relative to that of PBD2", "setting": "[4]", "result": 1.8, "unit": "times"}]}, {"substance": "FITC-A(β)KAFAKLAARLYRKAGC ({FITC}-[βAla]KAFAKLAARLYRKAGC) [FITC-PBD1]", "values": [{"measurement": "NaCl Elution Conc.", "setting": "[2]", "result": 438.8, "unit": "mM"}]}, {"substance": "FITC-A(β)YGRKKRRQRRR (AYGRKKRRQRRR; N-terminal FITC-beta-alanine) [FITC-TAT]", "values": [{"measurement": "NaCl Elution Conc.", "setting": "[2]", "result": 703.6, "unit": "mM"}]}, {"substance": "KAFAKLAARLYRKAGC [HBD-high]", "values": [{"measurement": "Relative Affinity to Heparin", "setting": "[1]", "result": 100, "unit": "%"}]}, {"substance": "KAFAKLAARLYRKAGC [PBD1-A]", "values": [{"measurement": "NaCl Elution Conc.", "setting": "[2]", "result": 325.0, "unit": "mM"}]}, {"substance": "WKA(β)FAKLNCRLYRKA (WK[βAla]FAKLNCRLYRKA) [PBD7]", "values": [{"measurement": "NaCl Elution Conc.", "setting": "[2]", "result": 422.6, "unit": "mM"}]}, {"substance": "dansyl-GKAFAKLAARLYRKAGC (Dansyl-GKAFAKLAARLYRKAGC) [PBD1]", "values": [{"measurement": "NaCl Elution Conc.", "setting": "[2]", "result": 685.9, "unit": "mM"}]}]}
